We go through 6 molecules from patent US11161854B2, “Indazolyl-spiro[2.2]pentane-carbonitrile derivatives as LRRK2 inhibitors, pharmaceutical compositions, and uses thereof” (Merck Sharp & Dohme Corp., priority 2017, dated 2021).

For the assay, the target named is GST-tagged truncated human mutant G2019S LRRK2 (Homo sapiens (Human), UniProt Q5S007, G2019S). Nature of the assay: LRRK2 G2019S Km ATP LanthaScreen Assay. Format: biochemical. The conditions noted are these: 134 μM ATP (Km ATP); fluorescein-labeled LRRKtide substrate; mean IC50 values.
Sequence of GST-tagged truncated human mutant G2019S LRRK2 (Q5S007 970-2527 G2019S): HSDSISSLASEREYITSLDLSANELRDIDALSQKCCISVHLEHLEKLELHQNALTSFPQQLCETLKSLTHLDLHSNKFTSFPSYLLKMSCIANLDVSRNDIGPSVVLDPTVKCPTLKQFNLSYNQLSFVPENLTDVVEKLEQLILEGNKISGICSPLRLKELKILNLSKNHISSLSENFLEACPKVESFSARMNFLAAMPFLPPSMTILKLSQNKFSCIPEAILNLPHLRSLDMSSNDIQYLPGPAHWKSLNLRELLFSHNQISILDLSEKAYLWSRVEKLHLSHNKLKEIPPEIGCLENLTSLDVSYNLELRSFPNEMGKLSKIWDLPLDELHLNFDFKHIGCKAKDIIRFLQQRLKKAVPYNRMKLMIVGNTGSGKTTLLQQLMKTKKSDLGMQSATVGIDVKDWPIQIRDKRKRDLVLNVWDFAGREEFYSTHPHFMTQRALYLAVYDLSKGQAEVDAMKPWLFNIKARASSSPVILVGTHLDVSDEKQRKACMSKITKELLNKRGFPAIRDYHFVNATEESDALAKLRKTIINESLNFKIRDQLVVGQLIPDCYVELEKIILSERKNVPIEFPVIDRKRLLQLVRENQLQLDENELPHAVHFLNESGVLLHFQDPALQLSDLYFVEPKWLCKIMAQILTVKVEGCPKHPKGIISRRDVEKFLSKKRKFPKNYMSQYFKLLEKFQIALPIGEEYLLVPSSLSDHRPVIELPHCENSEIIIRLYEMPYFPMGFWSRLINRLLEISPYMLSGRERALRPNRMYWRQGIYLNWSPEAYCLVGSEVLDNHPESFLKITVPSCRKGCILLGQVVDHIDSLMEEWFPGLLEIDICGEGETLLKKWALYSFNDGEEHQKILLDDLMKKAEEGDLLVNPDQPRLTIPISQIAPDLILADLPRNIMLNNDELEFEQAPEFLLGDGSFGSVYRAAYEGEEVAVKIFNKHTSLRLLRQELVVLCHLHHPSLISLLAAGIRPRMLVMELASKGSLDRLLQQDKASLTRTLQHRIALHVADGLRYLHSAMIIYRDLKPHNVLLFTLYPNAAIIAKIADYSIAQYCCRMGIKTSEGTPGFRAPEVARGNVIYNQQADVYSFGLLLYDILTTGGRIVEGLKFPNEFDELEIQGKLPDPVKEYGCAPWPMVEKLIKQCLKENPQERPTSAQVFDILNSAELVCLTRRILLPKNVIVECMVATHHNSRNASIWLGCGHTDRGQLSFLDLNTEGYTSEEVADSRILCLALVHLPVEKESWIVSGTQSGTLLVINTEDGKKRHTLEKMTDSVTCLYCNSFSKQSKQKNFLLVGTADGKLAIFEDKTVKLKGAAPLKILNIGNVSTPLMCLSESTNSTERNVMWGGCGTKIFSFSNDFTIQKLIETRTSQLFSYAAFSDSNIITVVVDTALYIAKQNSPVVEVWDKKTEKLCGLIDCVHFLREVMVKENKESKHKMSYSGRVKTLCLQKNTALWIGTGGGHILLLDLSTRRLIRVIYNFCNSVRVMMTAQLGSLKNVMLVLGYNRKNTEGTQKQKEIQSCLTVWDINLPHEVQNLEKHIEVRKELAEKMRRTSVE
With `Cc1nc(N2CCN(C3(C)COC3)CC2)cc(-n2ncc3ccc([C@]4(C#N)CC45CC5)cc32)n1` [Example 11.1, (S)-1-(1-(2-methyl-6-(4-(3-methyloxetan-3-yl)piperazin-1-yl)pyrimidin-4-yl)-1H-indazol-6-yl)spiro[2.2]pentane-1-carbonitrile], the IC50 (in general, the concentration at which inhibition is half-maximal) worked out at 0.6 nM.
The figure for `Cc1nc(N2CC3(C2)CN(C2COC2)C3)cc(-n2ncc3ccc([C@]4(C#N)CC45CC5)cc32)n1` [Example 11.3] is 454 nM; for `Cc1nc(N2C[C@@H]3C[C@H]2CN3C2(C)COC2)cc(-n2ncc3ccc([C@]4(C#N)CC45CC5)cc32)n1` [Example 11.4] it is 8.6 nM; for `Cc1cc(-n2ncc3ccc([C@]4(C#N)CC45CC5)cc32)cc(C)n1` [Example 11.5] it is 7.8 nM.
Regarding `Cc1cc(-n2ncc3ccc([C@]4(C#N)CC45CC5)cc32)ncn1` [Example 11.7], half-maximal inhibition (IC50) required 7.4 nM.
In turn, `Cc1nc(N2CC3(CN(CC(F)(F)F)C3)C2)cc(-n2ncc3ccc(C4(C#N)CC45CC5)cc32)n1` (stereo not drawn) [Example 12.2] gave an IC50 of 28.4 nM.
